Test results reported in patent publication EP0590721A1, “Method for expressing receptors of the human nervous system in the yeast Schizosaccharomyces pombe” (ENICHEM S.p.A., priority 1992, dated 1994).

Biological target: chimeric protein STE2-β₂AR (Homo sapiens, UniProt P07550)
Conditions: (125I)-CYP 20 pM, competitor 10⁻⁹ M to 10⁻³ M, 37°C one hour, TNE

## CNC[C@H](O)c1ccc(O)c(O)c1 [epinephrine]
  inhibition efficiency order: alprenolol > isoproterenol > epinephrine
